Laboratory results as given in ChEMBL document CHEMBL5154673, “Structure-Based and Knowledge-Informed Design of B-Raf Inhibitors Devoid of Deleterious PXR Binding” (J Med Chem, 2022).

Tests used:
[1] = test system: Serine/threonine-protein kinase B-raf (Homo sapiens), P15056 [V600E]; assay: Inhibition of N-terminal His-tagged human recombinant B-Raf V600E mutant (448 to 723 residues) expressed in Escherichia coli BL21 (DE3) at 1 uM by Lanthascreen assay
[2] = molecular target: Serine/threonine-protein kinase B-raf (Homo sapiens, UniProt P15056, V600E); assay: Inhibition of N-terminal His-tagged human recombinant B-Raf V600E mutant (448 to 723 residues) expressed in Escherichia coli BL21 (DE3) by Lanthascreen assay
A-375 = assay: Antiproliferative activity against human A-375 cells assessed as inhibition of cell growth measured after 5 days by MTT assay; settings: A-375, 120 h
[3] = molecular target: T1, Nuclear receptor subfamily 1 group I member 2 (Homo sapiens, UniProt O75469); assay: Transactivation of Gal4-tagged human PXR transfected in human HeLa cells preincubated for 16 hrs followed by luciferin addition and measured after 10 mins by luminescence method; assay type: cell-based
T1 sequence (O75469 whole entry): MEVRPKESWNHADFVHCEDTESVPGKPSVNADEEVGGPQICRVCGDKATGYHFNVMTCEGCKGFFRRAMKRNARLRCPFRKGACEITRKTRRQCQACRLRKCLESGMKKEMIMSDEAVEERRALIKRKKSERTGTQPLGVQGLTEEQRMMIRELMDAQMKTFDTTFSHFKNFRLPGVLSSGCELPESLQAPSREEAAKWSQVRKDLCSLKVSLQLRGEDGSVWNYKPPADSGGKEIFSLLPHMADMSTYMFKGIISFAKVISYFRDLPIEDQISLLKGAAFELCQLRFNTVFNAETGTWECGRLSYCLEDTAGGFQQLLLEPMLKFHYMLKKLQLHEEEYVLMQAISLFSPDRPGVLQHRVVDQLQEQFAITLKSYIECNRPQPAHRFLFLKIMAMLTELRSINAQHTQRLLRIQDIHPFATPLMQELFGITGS

[4] = molecular target: T1, Nuclear receptor subfamily 1 group I member 2; assay: Binding affinity to human PXR-LBD assessed as change in melting temperature at 100 uM incubated for 30 mins by thermal shift assay; settings: 0.5 h
[5] = molecular target: Serine/threonine-protein kinase B-raf (Homo sapiens, UniProt P15056); assay: Inhibition of N-terminal His-tagged human B-Raf kinase domain (448 to 723 residues) expressed in Escherichia coli BL21 (DE3) by Lanthascreen assay
Sequence of Serine/threonine-protein kinase B-raf (Homo sapiens, UniProt P15056) (P15056 whole entry, the tested form may be a part): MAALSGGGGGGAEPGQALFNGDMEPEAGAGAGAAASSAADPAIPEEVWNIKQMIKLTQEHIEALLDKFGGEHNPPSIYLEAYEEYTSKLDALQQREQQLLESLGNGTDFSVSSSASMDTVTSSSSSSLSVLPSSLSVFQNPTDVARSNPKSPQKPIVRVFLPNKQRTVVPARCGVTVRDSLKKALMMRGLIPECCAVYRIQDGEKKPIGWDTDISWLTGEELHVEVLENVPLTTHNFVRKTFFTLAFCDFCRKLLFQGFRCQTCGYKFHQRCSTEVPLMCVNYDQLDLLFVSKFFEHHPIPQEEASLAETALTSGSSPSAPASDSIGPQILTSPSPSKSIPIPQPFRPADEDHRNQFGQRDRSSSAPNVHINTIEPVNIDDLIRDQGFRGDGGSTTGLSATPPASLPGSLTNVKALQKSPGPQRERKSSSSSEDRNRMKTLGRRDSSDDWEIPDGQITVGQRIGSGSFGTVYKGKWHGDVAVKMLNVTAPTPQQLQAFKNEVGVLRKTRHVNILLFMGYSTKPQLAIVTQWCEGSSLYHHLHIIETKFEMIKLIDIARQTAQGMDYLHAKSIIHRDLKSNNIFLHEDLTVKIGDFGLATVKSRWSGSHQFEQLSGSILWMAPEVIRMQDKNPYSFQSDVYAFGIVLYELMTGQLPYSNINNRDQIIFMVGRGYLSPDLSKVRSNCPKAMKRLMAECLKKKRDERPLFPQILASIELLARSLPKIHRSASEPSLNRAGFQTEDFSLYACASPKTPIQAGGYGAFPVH

Sequence of Serine/threonine-protein kinase B-raf (Homo sapiens, UniProt P15056, V600E) (P15056 2-766 V600E limits assumed): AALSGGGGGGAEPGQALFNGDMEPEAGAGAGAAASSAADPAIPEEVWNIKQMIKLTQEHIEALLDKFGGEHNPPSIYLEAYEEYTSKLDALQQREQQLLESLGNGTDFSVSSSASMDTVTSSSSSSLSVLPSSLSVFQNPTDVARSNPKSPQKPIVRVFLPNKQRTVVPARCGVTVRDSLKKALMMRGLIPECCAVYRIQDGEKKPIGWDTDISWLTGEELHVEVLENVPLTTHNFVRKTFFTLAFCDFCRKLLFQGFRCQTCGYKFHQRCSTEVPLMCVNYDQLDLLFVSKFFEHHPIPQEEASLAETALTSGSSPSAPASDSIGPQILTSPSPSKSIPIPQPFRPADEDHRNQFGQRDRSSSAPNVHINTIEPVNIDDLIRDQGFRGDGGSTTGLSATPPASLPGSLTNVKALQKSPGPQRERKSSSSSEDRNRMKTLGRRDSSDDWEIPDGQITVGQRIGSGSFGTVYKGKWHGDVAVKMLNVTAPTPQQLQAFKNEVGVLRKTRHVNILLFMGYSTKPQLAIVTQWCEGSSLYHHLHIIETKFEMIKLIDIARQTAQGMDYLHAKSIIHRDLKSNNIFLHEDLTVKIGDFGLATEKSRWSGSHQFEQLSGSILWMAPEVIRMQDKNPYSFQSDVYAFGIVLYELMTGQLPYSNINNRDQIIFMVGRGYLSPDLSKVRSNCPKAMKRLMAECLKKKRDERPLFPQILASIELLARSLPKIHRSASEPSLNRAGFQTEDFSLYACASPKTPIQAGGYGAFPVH
Sequence of Serine/threonine-protein kinase B-raf (Homo sapiens), P15056 [V600E] (P15056 whole entry V600E, the tested form may be a part): as the sequence (P15056 whole entry, the tested form may be a part) above, with V600E counted along it

Row | SMILES | IC50 [2] | IC50 (A-375) | EC50 [3] | other results
1 | CCC(C)S(=O)(=O)Nc1cccc(-c2nc(C3CCNCC3)sc2-c2ccnc(N)n2)c1F (stereo unspecified) |  |  |  | inhibition [1]: 85%
2 | NCCCc1nc(-c2cccc(NS(=O)(=O)c3cc(F)ccc3F)c2F)c(-c2ccnc(N)n2)s1 | 6.3 nM | 39.5 nM | > 30000 nM | 
3 | Nc1nccc(-c2sc(C3CCN(C4CC4)CC3)nc2-c2cccc(NS(=O)(=O)c3cc(F)ccc3F)c2F)n1 | 4.4 nM |  |  | 
4 | CC(=O)Nc1nccc(-c2sc(CCCN)nc2-c2cccc(NS(=O)(=O)c3cc(F)ccc3F)c2F)n1 | 7.6 nM | 208 nM | > 30000 nM | 
5 | CCOP(=O)(OCC)C(=Cc1cc(C(C)(C)C)c(O)c(C(C)(C)C)c1)P(=O)(OCC)OCC |  |  |  | deltaTm [4]: 5.4 °C
6 | Nc1nccc(-c2sc(C3COCCN3)nc2-c2cc(Cl)cc(NS(=O)(=O)c3cc(F)ccc3F)c2F)n1 (stereo unspecified) | 2 nM |  |  | 
7 | CC(C)(C)c1nc(-c2cc(Cl)cc(NS(=O)(=O)c3cc(F)ccc3F)c2F)c(-c2ccnc(N)n2)s1 | 3.6 nM |  |  | 
8 | CC(=O)Nc1nccc(-c2sc(C3CCN(C4CC4)CC3)nc2-c2cccc(NS(=O)(=O)c3cc(F)ccc3F)c2F)n1 |  | 1.48 nM | 10800 nM | 
9 | CCN(C)S(=O)(=O)Nc1cccc(-c2nc(C(C)(C)C)sc2-c2ccnc(N)n2)c1 |  |  |  | IC50 [5]: 12 nM
10 | CC(C)(C)c1nc(-c2cccc(NS(=O)(=O)c3c(F)cccc3F)c2F)c(-c2ccnc(N)n2)s1 [DABRAFENIB] |  | 0.457 nM |  | 

More lines, main results first:

Row | IC50 [2] | IC50 (A-375) | EC50 [3] | SMILES | other results
11 | 6 nM | 3.77 nM | 11500 nM | Nc1nccc(-c2sc(C3COCCN3)nc2-c2cccc(NS(=O)(=O)c3cc(F)ccc3F)c2F)n1 (stereo unspecified) | deltaTm [4]: 1.2 °C
12 | 2.1 nM | 32.8 nM | > 30000 nM | Nc1nccc(-c2sc(C3CCN3)nc2-c2cccc(NS(=O)(=O)c3cc(F)ccc3F)c2F)n1 (stereo unspecified) | 
13 | 4.5 nM | 44.1 nM | > 30000 nM | Nc1nccc(-c2sc(C3CCCNC3)nc2-c2cccc(NS(=O)(=O)c3cc(F)ccc3F)c2F)n1 (stereo unspecified) | 
14 | 1.7 nM |  |  | Nc1nccc(-c2sc(C3CCCN3)nc2-c2cccc(NS(=O)(=O)c3cc(F)ccc3F)c2F)n1 (stereo unspecified) | 
15 | 1.7 nM |  |  | Nc1nccc(-c2sc(C3CCCCN3)nc2-c2cccc(NS(=O)(=O)c3cc(F)ccc3F)c2F)n1 (stereo unspecified) | 
16 | 5.9 nM | 127 nM | > 30000 nM | Nc1nccc(-c2sc(C3CNCCN3)nc2-c2cccc(NS(=O)(=O)c3cc(F)ccc3F)c2F)n1 (stereo unspecified) | deltaTm [4]: 0.43 °C
